Experimental data as given in the supplement of paper PMC4862054.

Tests used:
Conditions in all cases: incubation time: 72 h
BT-474 [1] = experiment: normalised response (% of control), CellTox Green; higher = less cell death (100 = DMSO, 0 = benzethonium chloride kill control)
How it was run: (§1)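 Each entry is the normalised signal at a single concentration within a series. The series comprised 5 concentrations in 10-fold steps over a compound-specific 10,000-fold range, placed in 384-well plates into which breast cancer cell lines were seeded as 20 µl suspension and incubated 72 h. CellTox Green (485/520 nm) fluorescence and then CellTiter-Glo luminescence were read, with signals normalised per plate to 0.1 % DMSO (100) and a positive kill control (0).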

BT-549 [2] = experiment: as above
How it was run: as §1

CAL-120 [3] = experiment: as above
How it was run: as §1

CAL-148 [4] = experiment: as above
How it was run: as §1

CAL-51 [5] = experiment: as above
How it was run: as §1

CAL-85-1 [6] = experiment: as above
How it was run: as §1

DU-4475 [7] = experiment: as above
How it was run: as §1

HCC1143 [8] = experiment: as above
How it was run: as §1

HCC1599 [9] = experiment: as above
How it was run: as §1

HDQ-P1 [10] = experiment: as above
How it was run: as §1

MCF-10A [11] = experiment: as above
How it was run: as §1

MDA-MB-231 [12] = experiment: as above
How it was run: as §1

MDA-MB-436 [13] = experiment: as above
How it was run: as §1

MDA-MB-453 [14] = experiment: as above
How it was run: as §1

MFM-223 [15] = experiment: as above
How it was run: as §1

BT-474 [16] = experiment: normalised response (% of control), CellTiter-Glo; higher = more viable cells (100 = DMSO, 0 = benzethonium chloride kill control)
Method: (§2)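 DSRT, 72 h incubation, CellTox Green / CellTiter-Glo readout. Signal is normalised to DMSO and benzethonium chloride controls. Value is the normalised response at dose 3.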

BT-549 [17] = experiment: as above
Method: as §2

CAL-120 [18] = experiment: as above
Method: as §2

CAL-148 [19] = experiment: as above
Method: as §2

CAL-51 [20] = experiment: as above
Method: as §2

CAL-85-1 [21] = experiment: as above
Method: as §2

DU-4475 [22] = experiment: as above
Method: as §2

HCC1143 [23] = experiment: as above
Method: as §2

HCC1599 [24] = experiment: as above
Method: as §2

HCC1937 [25] = experiment: as above
Method: as §2

HDQ-P1 [26] = experiment: as above
Method: as §2

Hs578T [27] = experiment: as above
Method: as §2

MCF-10A [28] = experiment: as above
Method: as §2

MDA-MB-231 [29] = experiment: as above
Method: as §2

MDA-MB-436 [30] = experiment: as above
Method: as §2

MDA-MB-453 [31] = experiment: as above
Method: as §2

MDA-MB-468 [32] = experiment: as above
Method: as §2

MFM-223 [33] = experiment: as above
Method: as §2

SK-BR-3 [34] = experiment: as above
Method: as §2

HCC1937 [35] = experiment: normalised response (% of control), CellTox Green; higher = less cell death (100 = DMSO, 0 = benzethonium chloride kill control)
How it was run: as §1

Hs578T [36] = experiment: as above
How it was run: as §1

MDA-MB-468 [37] = experiment: as above
How it was run: as §1

BT-474 [38] = experiment: normalised response (% of control), CellTiter-Glo; higher = more viable cells (100 = DMSO, 0 = benzethonium chloride kill control); remark: listed apart in the source
How it was run: as §1

BT-549 [39] = experiment: as above; remark: listed apart in the source
How it was run: as §1

CAL-120 [40] = experiment: as above; remark: listed apart in the source
How it was run: as §1

CAL-148 [41] = experiment: as above; remark: listed apart in the source
How it was run: as §1

CAL-51 [42] = experiment: as above; remark: listed apart in the source
How it was run: as §1

CAL-85-1 [43] = experiment: as above; remark: listed apart in the source
How it was run: as §1

DU-4475 [44] = experiment: as above; remark: listed apart in the source
How it was run: as §1

HCC1143 [45] = experiment: as above; remark: listed apart in the source
How it was run: as §1

HCC1599 [46] = experiment: as above; remark: listed apart in the source
How it was run: as §1

HCC1937 [47] = experiment: as above; remark: listed apart in the source
How it was run: as §1

HDQ-P1 [48] = experiment: as above; remark: listed apart in the source
How it was run: as §1

Hs578T [49] = experiment: as above; remark: listed apart in the source
How it was run: as §1

MCF-10A [50] = experiment: as above; remark: listed apart in the source
How it was run: as §1

MDA-MB-231 [51] = experiment: as above; remark: listed apart in the source
How it was run: as §1

MDA-MB-436 [52] = experiment: as above; remark: listed apart in the source
How it was run: as §1

MDA-MB-453 [53] = experiment: as above; remark: listed apart in the source
How it was run: as §1

MDA-MB-468 [54] = experiment: as above; remark: listed apart in the source
How it was run: as §1

MFM-223 [55] = experiment: as above; remark: listed apart in the source
How it was run: as §1

SK-BR-3 [56] = experiment: as above; remark: listed apart in the source
How it was run: as §1

`C[C@]1(O)C[C@@H](c2nc(-c3ccc4ccc(-c5ccccc5)nc4c3)c3c(N)nccn32)C1` [Linsitinib] (100 nM) was tested, and the normalised response (BT-474 [1]) was 99.3%, the normalised response (BT-549 [2]) was 102% and the normalised response (CAL-120 [3]) was 97.2%. For the same molecule, the normalised response (CAL-148 [4]) was 76.6%, the normalised response (CAL-51 [5]) was 95.5% and the normalised response (CAL-85-1 [6]) was 90.8%. The normalised response (DU-4475 [7]) was 96.2%, the normalised response (HCC1143 [8]) was 73% and the normalised response (HCC1599 [9]) was 93.8%. For the same molecule, the normalised response (HDQ-P1 [10]) was 93.2%, the normalised response (MCF-10A [11]) was 92.7% and the normalised response (MDA-MB-231 [12]) was 83.4%. It also gave a normalised response (MDA-MB-436 [13]) of 52.9%, a normalised response (MDA-MB-453 [14]) of 99.3% and a normalised response (MFM-223 [15]) of 99.8%. The normalised response (BT-474 [16]) was 91.3%, the normalised response (BT-549 [17]) was 100% and the normalised response (CAL-120 [18]) was 90.4%. For the same molecule, the normalised response (CAL-148 [19]) was 90%, the normalised response (CAL-51 [20]) was 105% and the normalised response (CAL-85-1 [21]) was 89.7%. For the same molecule, the normalised response (DU-4475 [22]) was 97.8%, the normalised response (HCC1143 [23]) was 98.1% and the normalised response (HCC1599 [24]) was 107%. For the same molecule, the normalised response (HCC1937 [25]) was 107%, the normalised response (HDQ-P1 [26]) was 99.8% and the normalised response (Hs578T [27]) was 106%. For the same molecule, the normalised response (MCF-10A [28]) was 72.8%, the normalised response (MDA-MB-231 [29]) was 93.9% and the normalised response (MDA-MB-436 [30]) was 88.9%. It also gave a normalised response (MDA-MB-453 [31]) of 90.7%, a normalised response (MDA-MB-468 [32]) of 85.6% and a normalised response (MFM-223 [33]) of 91.4%. It also gave a normalised response (SK-BR-3 [34]) of 84.8%.

Work on `C[C@]1(O)C[C@@H](c2nc(-c3ccc4ccc(-c5ccccc5)nc4c3)c3c(N)nccn32)C1` [Linsitinib] (1000 nM) yielded a normalised response (BT-474 [1]) of 91%, a normalised response (BT-549 [2]) of 108% and a normalised response (CAL-120 [3]) of 94.9%. The normalised response (CAL-148 [4]) was 105%, the normalised response (CAL-51 [5]) was 104% and the normalised response (CAL-85-1 [6]) was 97.3%. The normalised response (DU-4475 [7]) was 94.9%, the normalised response (HCC1143 [8]) was 76.7% and the normalised response (HCC1599 [9]) was 94.6%. For the same molecule, the normalised response (HCC1937 [35]) was 124%, the normalised response (HDQ-P1 [10]) was 87.9% and the normalised response (Hs578T [36]) was 93.5%. For the same molecule, the normalised response (MCF-10A [11]) was 75%, the normalised response (MDA-MB-231 [12]) was 102% and the normalised response (MDA-MB-436 [13]) was 73.8%. For the same molecule, the normalised response (MDA-MB-453 [14]) was 102%, the normalised response (MDA-MB-468 [37]) was 75.2% and the normalised response (MFM-223 [15]) was 96.5%. It also gave a normalised response (BT-474 [38]) of 78%, a normalised response (BT-549 [39]) of 88.6% and a normalised response (CAL-120 [40]) of 88%. The normalised response (CAL-148 [41]) was 101%, the normalised response (CAL-51 [42]) was 94% and the normalised response (CAL-85-1 [43]) was 85.5%. For the same molecule, the normalised response (DU-4475 [44]) was 92.5%, the normalised response (HCC1143 [45]) was 88.7% and the normalised response (HCC1599 [46]) was 92%. The normalised response (HCC1937 [47]) was 98.9%, the normalised response (HDQ-P1 [48]) was 76.8% and the normalised response (Hs578T [49]) was 101%. The normalised response (MCF-10A [50]) was 48.5%, the normalised response (MDA-MB-231 [51]) was 85.9% and the normalised response (MDA-MB-436 [52]) was 95.5%. For the same molecule, the normalised response (MDA-MB-453 [53]) was 83.8%, the normalised response (MDA-MB-468 [54]) was 79.6% and the normalised response (MFM-223 [55]) was 94.5%. For the same molecule, the normalised response (SK-BR-3 [56]) was 69.8%.

`Cc1ccc([N+](=O)[O-])cc1S(=O)(=O)N(C)/N=C/c1cnc2ccc(Br)cn12` [PIK-75] (1000 nM) gave a normalised response (BT-474 [1]) of 6.93%, a normalised response (BT-549 [2]) of 35.8% and a normalised response (CAL-120 [3]) of 86.8%. The normalised response (CAL-148 [4]) was 86.7%, the normalised response (CAL-51 [5]) was 70.6% and the normalised response (CAL-85-1 [6]) was -12.6%. For the same molecule, the normalised response (DU-4475 [7]) was 79%, the normalised response (HCC1143 [8]) was 56.9% and the normalised response (HCC1599 [9]) was 62.1%. It also gave a normalised response (HCC1937 [35]) of 99.3%, a normalised response (HDQ-P1 [10]) of 38.4% and a normalised response (Hs578T [36]) of 42.7%. For the same molecule, the normalised response (MCF-10A [11]) was -12.4%, the normalised response (MDA-MB-231 [12]) was -17.8% and the normalised response (MDA-MB-436 [13]) was 102%. For the same molecule, the normalised response (MDA-MB-453 [14]) was 61.6%, the normalised response (MDA-MB-468 [37]) was -15.6% and the normalised response (MFM-223 [15]) was 44.6%. The normalised response (BT-474 [38]) was 9.85%, the normalised response (BT-549 [39]) was 2.37% and the normalised response (CAL-120 [40]) was 28.5%. For the same molecule, the normalised response (CAL-148 [41]) was 48.8%, the normalised response (CAL-51 [42]) was 11.5% and the normalised response (CAL-85-1 [43]) was 1.64%. The normalised response (DU-4475 [44]) was 4.76%, the normalised response (HCC1143 [45]) was 13.3% and the normalised response (HCC1599 [46]) was 6.38%. The normalised response (HCC1937 [47]) was 21.6%, the normalised response (HDQ-P1 [48]) was 16.7% and the normalised response (Hs578T [49]) was 3.83%. The normalised response (MCF-10A [50]) was 1.81%, the normalised response (MDA-MB-231 [51]) was 1.8% and the normalised response (MDA-MB-436 [52]) was 15.9%. It also gave a normalised response (MDA-MB-453 [53]) of 4.17%, a normalised response (MDA-MB-468 [54]) of 2.19% and a normalised response (MFM-223 [55]) of 7.31%. The normalised response (SK-BR-3 [56]) was 0.25%.
